Data from US5234936A, “Pyrimidocycloalkanes as a II antagonists” (American Home Products Corporation, priority 1991, dated 1993).

Test system: A II-infused rat
Assay: antihypertensive action in A II-infused rat model
Format: in vivo
Procedure: In accordance with their ability to antagonize angiotensin II, the compounds of this invention show antihypertensive action in the following A II-infused rat model. Rats are anesthetized with Dial-Urethane (0.60 mL/kg, ip) and the trachea cannulated with PE 240. Either one femoral artery and both femoral veins or the carotid artery and the corresponding jugular vein are cannulated with PE 50. If the jugular vein is cannulated, two cannulas are placed in the one vein. The initial portion of the duodenum (just distal to the stomach) is cannulated with PE 50 via a small midline incision. Arterial pressure and heart rate are measured from the arterial cannula. Ten to 15 min are allowed following surgery for stabilization of arterial pressure. Ganglion blockade is then produced by intravenous administration of mecamylamine at 3 mg/kg (1 mL/kg of a 3 mg/mL solution). Ganglion blockade causes a fall in arterial pressure of about 50 mmHg. Mecamylamine is given every 90 min throughout the remainder of the experiment. An A II infusion is then begun into the other venous cannula at 0.25 μg/kg/min (at 9.6 μL/min). The A II infusion returns arterial pressure to or slightly above the control level. Once arterial pressure has stabilized with the A II infusion, baseline values for means arterial pressure (MAP) and heart rate are taken. […]

Row | Compound | average lowering of the A II dependent blood pressure (3 mg/kg id (intraduodenal), one half hour postadministration, ganglion-blocked A II-infused rats) [%] | fall in arterial pressure on ganglion blockade (mecamylamine 3 mg/kg intravenous, before A II infusion, anesthetized rats)
1 | FC(F)(F)c1nc2c(c(NCc3ccc(-c4ccccc4-c4nnn[nH]4)cc3)n1)CCCCC2.O.[K] [Example 5, 6,7,8,9-tetrahydro-N-[[2'-(1H-tetrazol-5-yl)[1,1'-biphenyl]-4-yl]methyl]-2-(trifluoromethyl)-5H-cycloheptapyrimidin-4-amine potassium salt hydrate] | 45 | –
2 | CNC1(C)C2CCC(C2)C1(C)C (centres unmarked) [mecamylamine] | – | about 50 mmHg
